Columns and labels:
[1] = test system: HuH-7 cells; assay: Oleic acid-induced in vitro fatty liver cell model, lipid droplets by Oil Red O staining quantified by Image J; format: cell-based, human
Description: (§1) Another human hepatocellular carcinoma cell line HuH-7 was used to test the temporal effect of Compound A to further confirm the effect of Compound A on intracellular lipid droplets. Similar to Example 2, to induce in vitro fatty liver cell model on HuH-7 with oleic acid, HuH-7 cells were cultured in a 24-well plate at a cell volume of 8×10^4 and added with 0.1 mM of oleic acid for 24-hour culturing. After the replacement of culture medium containing oleic acid, 10 μg/mL of Compound A was added to DMEM for culturing for 4 hours, 8 hours, 16 hours, and 24 hours; each time point performed four repetitions. ORO staining was used to confirm the level of lipid droplets in HuH-7, and their number and size were quantified by Image J.

[2] = test system: C57BL/6JNarl male mice fed with high fat diet; assay: Analysis of fat amount in liver tissue (H&E stain, Image J); format: in vivo; conditions: HFD mice; for percentage of area of lipid droplets relative to the total field of view in liver tissue: 2 mg/kg intraperitoneal, compared with Group 2 (HFD)
Description: (§2) 24 C57BL/6JNarl male mice at 5 weeks of age were purchased from the National Laboratory Animal Center and housed in the laboratory animal room of the Far Eastern Memorial Hospital at a constant temperature of 22° C., 55% humidity, automatic air regulation (ventilation rate of 12 times per hour), automatic light control (12:12 hour light/dark cycle), and provided with free access to water and chow diet D12450B (Research Diets, Inc.) for two weeks.
(§3) Then the 24 mice (7 weeks of age) were randomly divided into four groups, each containing six mice—Group 1 is the chow diet (CD) control group fed with chow diet D12450B; Group 2 is the high fat diet (HFD) group fed with high fat diet (i.e., modified D12492); Group 3 is the HFD+Compound A treatment group provided with high fat diet and Compound A; and Group 4 is the HFD+Compound B treatment group provided with high fat diet and Compound B. […]
Image J was used to quantify the percentage of area of lipid droplets relative to the total field of view in mice liver tissues (FIG. 5E). […]

[3] = test system: C57BL/6JNarl male mice fed with high fat diet; assay: Blood biochemistry of fatty liver mice; format: in vivo; conditions: HFD mice; for aspartate transaminase (AST) and alanine transaminase (ALT) compared with Group 2: 2 mg/kg, statement in words; for ALT / AST / GLU / T-CHO / TG: serum, 2 mg/kg intraperitoneal, six injections in two weeks, mean ± SD, six mice
Description: as §2
(§4) Then the 24 mice (7 weeks of age) were randomly divided into four groups, each containing six mice—Group 1 is the chow diet (CD) control group fed with chow diet D12450B; Group 2 is the high fat diet (HFD) group fed with high fat diet (i.e., modified D12492); Group 3 is the HFD+Compound A treatment group provided with high fat diet and Compound A; and Group 4 is the HFD+Compound B treatment group provided with high fat diet and Compound B.
(§5) Group 1 was fed with chow diet for 18 weeks, followed by 2 more weeks of chow diet, and then given an intraperitoneal injection of saline, without receiving Compound A or Compound B. Group 2, the HFD group, was fed with high fat diet for 18 weeks, followed by 2 more weeks of high fat diet, and then given an intraperitoneal injection of saline, without receiving Compound A or Compound B. Group 3, the HFD+Compound A treatment group, was fed with high fat diet for 18 weeks and then given an intraperitoneal injection of 2 mg/kg of Compound A per mouse, three times a week (once every one or two days) for two weeks, a total of six injections of Compound A. Group 4, the HFD+Compound B treatment group, was fed with high fat diet for 18 weeks and then given an intraperitoneal injection of 2 mg/kg of Compound B per mouse, three times a week (once every one or two days) for two weeks, a total of six injections of Compound B. After completion of feeding and treatment described above, the mice were weighed and euthanized with CO2, and their blood and liver tissue specimens were collected for analysis.
Blood samples from mice of each group in Example 4 were tested for measurement of serum aspartate transaminase (AST), alanine transaminase (ALT), total cholesterol (T-CHO), triglyceride (TG) and glucose (GLU). AST and ALT are common measures of liver function.

[4] = test system: C57BL/6JNarl male mice fed with high fat diet; assay: Analysis of liver tissue fibrosis (Masson's Trichrome, collagen proportionate area); format: in vivo; conditions: HFD mice; for percentage of collagen proportionate area (CPA) in liver tissue: 2 mg/kg intraperitoneal, compared with Group 2 (HFD)
Description: as §2, §3
Nuance multispectral image analysis module (PerknElmer, Inc) was used to quantify the collagen proportionate area (CPA), as shown in FIG. 6E. […]

[5] = test system: C57BL/6JNarl male mice fed with high fat diet; assay: Fatty liver animal test: liver appearance and liver weight; format: in vivo; conditions: HFD mice, 2 mg/kg intraperitoneal, three times a week for two weeks; compared with Group 2 (HFD)
Description: as §2, §4, §5

[6] = test system: HepG2 cells; assay: Oleic acid-induced in vitro fatty liver cell model, lipid droplets by Oil Red O staining quantified by Image J; format: cell-based, human; conditions: for lipid droplet accumulation: HepG2, 10 nM compound for 24 hours
Description: Human hepatocellular carcinoma cell line HepG2 was cultured in Dulbecco's modified Eagle's medium (DMEM, containing 4,500 mg/L D-glucose and L-glutamine) supplemented with 10% fetal bovine serum and 1% penicillin/streptomycin at 37° C. incubator with 5% CO2. To induce in vitro fatty liver cell model on HepG2 with oleic acid-bovine serum albumin complex (Sigma-Aldrich, USA), HepG2 cells were cultured in a 24-well plate at a cell volume of 8×10^4; after 18 to 24 hours when a 70% confluence of cell growth has reached, 0.1 mM of oleic acid was added for culturing for 24 hours. After the replacement of culture medium containing oleic acid, 0.5 μg/mL, 1 μg/mL, 2.5 μg/mL, 5 μg/mL and 10 μg/mL of Compound A were added to DMEM containing 2% fetal bovine serum for culturing for 8 hours; each experimental group performed four repetitions.
Oil Red O (ORO) staining was used to confirm the level of lipid droplets, e.g., amount of red particles, in HepG2. After 24 hours of oleic acid treatment, HepG2 cells were fixed with 4% paraformaldehyde for 15 minutes, followed by phosphate-buffered saline (PBS) washing for three times and then ORO staining for 1 hour. After staining, the cells were washed with PBS for three times, followed by hematoxylin staining for 5 minutes. The coverslip was reversely placed on the slide and sealed with glycerine for observation with optical microscope; images were taken and saved as electronic files.
Intracellular lipid droplets were quantified by Image J (National Institutes of Health, NIH) after adjustment to a proper threshold value. Images with at least 20 cells were analyzed and quantified by Image J with the “analyze particles” functions in threshold single sections with size (pixel^2) setting from 0.1 to 10.
as §1, with “Similar” for “Another human hepatocellular carcinoma cell line HuH-7 was used to test the temporal effect of Compound A to further confirm the effect of Compound A on intracellular lipid droplets. Similar”, “1,” for “2,”, “HepG2” for “HuH-7”, “HepG2,” for “HuH-7,”
Compound C, which is a derivative of Compound A, was also tested to further investigate the effect of glucosamine peptide compounds defined herein, including Compound A and its derivatives, on the formation of intracellular lipid droplets. Similar to Example 2, to induce in vitro fatty liver cell model on HepG2 with oleic acid, HepG2 cells were cultured in a 24-well plate at a cell volume of 8×10^4 and added with 0.1 mM of oleic acid for 24-hour culturing. After the replacement of culture medium containing oleic acid, 10 nM of Compound A and 10 nM of Compound C were individually added to different DMEMs for culturing for 24 hours, and four repetitions were performed for both Compound A and Compound C. ORO staining was used to confirm the level of lipid droplets in HepG2, and their number and size were quantified by Image J.

CC(=O)N[C@@H]1[C@@H](O[C@H](C)C(=O)N[C@@H](C)C(=O)N[C@H](CCC(=O)O)C(N)=O)[C@H](O)[C@@H](CO)O[C@H]1O [Compound A]
treatment time after which significant reduction of lipid droplets is observed ([1]; HuH-7, 10 μg/mL): 4 h | treatment time at which maximum reduction of lipid droplets occurs ([1]; HuH-7, 10 μg/mL): 16 h | number and size of lipid droplets ([1]; HuH-7, 10 μg/mL compound for 4, 8, 16 and 24 hours): decrease with the increase of treatment time of Compound A in a time-dependent manner | percentage of area of lipid droplets relative to the total field of view in liver tissue [2]: much lower percentage of area of lipid droplets relative to the total field of view than Group 2 | aspartate transaminase (AST) and alanine transaminase (ALT) compared with Group 2 [3]: significantly lower | ALT [3]: 240.5 ± 83.1 U/L | AST [3]: 200.0 ± 68.4 U/L | GLU [3]: 287.2 ± 60.0 mg/dL | T-CHO [3]: 225.3 ± 53.2 mg/dL | TG [3]: 30.1 ± 9.8 mg/dL | percentage of collagen proportionate area (CPA) in liver tissue [4]: much lower percentage of collagen proportionate area than Group 2 | liver appearance (size) [5]: smaller livers than Group 2 | lipid droplet accumulation [6]: reduced significantly | treatment time after which significant reduction of lipid droplets is observed ([6]; HepG2, 10 μg/mL): 4 h | treatment time at which maximum reduction of lipid droplets occurs ([6]; HepG2, 10 μg/mL): 8 h | number and size of lipid droplets ([6]; HepG2, 10 μg/mL compound for 4, 8, 16 and 24 hours): decrease with the increase of treatment time of Compound A in a time-dependent manner | number and size of lipid droplets ([6]; HepG2, 0.1 mM oleic acid 24 h, then 0.5-10 μg/mL compound for 8 hours): decrease with the increase of Compound A concentration in a dose-dependent manner

CCCCCCCCCCCCCCCC(=O)OCC(COP(=O)(O)OCCNC(=O)[C@H](C)NC(=O)CC[C@@H](NC(=O)[C@H](C)NC(=O)C(C)O[C@H]1[C@H](O)[C@@H](CO)OC(O)[C@@H]1NC(C)=O)C(N)=O)OC(=O)CCCCCCCCCCCCCCC (stereo partly shown) [Compound B]
percentage of area of lipid droplets relative to the total field of view in liver tissue [2]: much lower percentage of area of lipid droplets relative to the total field of view than Group 2 | alleviating accumulation of hepatic fat induced by high fat diet, comparison of the compounds ([2]; Group 4 compared with Group 3): more effective than Compound A | aspartate transaminase (AST) and alanine transaminase (ALT) compared with Group 2 [3]: significantly lower | ALT [3]: 185.4 ± 83.1 U/L | AST [3]: 191.3 ± 74.0 U/L | GLU [3]: 274.4 ± 31.0 mg/dL | T-CHO [3]: 234.0 ± 33.6 mg/dL | TG [3]: 42.2 ± 18.9 mg/dL | percentage of collagen proportionate area (CPA) in liver tissue [4]: much lower percentage of collagen proportionate area than Group 2 | alleviating liver fibrosis complicated with fatty liver, comparison of the compounds ([4]; Group 4 compared with Group 3): more effective than Compound A | average liver weight [5]: less than Group 2 | liver appearance (size) [5]: smaller livers than Group 2 | ratio of liver weight to body weight (average liver weight percentage) [5]: smaller average liver weight percentage than Group 2

CCCCOC(=O)[C@@H](CCC(N)=O)NC(=O)[C@H](C)NC(=O)[C@@H](C)OC1C(NC(C)=O)[C@@H](O)OC(CO)[C@H]1O (stereo partly shown) [Compound C]
lipid droplet accumulation [6]: reduced significantly

— US10342874B2, “Glucosamine peptide compounds for treating liver metabolic disorders” (Far Eastern Memorial Hospital, priority 2017, dated 2019)
